Data published in patent US20050228180A1, “Alpha, omega-dicarboximide derivatives as useful uro-selective a1a adrenoceptor blockers” (priority 2002, published 2005).
Counter-ions that a name gives are not always drawn.

Columns and labels:
[1] = target: T1, α1A adrenoceptor (Rattus norvegicus, UniProt P43140); assay: Radioligand binding, [3H] prazosin displacement, rat submaxillary membranes; details: for Ki: [3H] prazosin displacement, rat submaxillary membranes, read-out: Affinity (Ki) α1A (Rat Submaxillary); for α1B/α1A: ratio of binding affinities, rat liver / rat submaxillary
T1 construct: from tissue; host or cells: rat submaxillary gland membranes
T1 sequence (P43140 1-466): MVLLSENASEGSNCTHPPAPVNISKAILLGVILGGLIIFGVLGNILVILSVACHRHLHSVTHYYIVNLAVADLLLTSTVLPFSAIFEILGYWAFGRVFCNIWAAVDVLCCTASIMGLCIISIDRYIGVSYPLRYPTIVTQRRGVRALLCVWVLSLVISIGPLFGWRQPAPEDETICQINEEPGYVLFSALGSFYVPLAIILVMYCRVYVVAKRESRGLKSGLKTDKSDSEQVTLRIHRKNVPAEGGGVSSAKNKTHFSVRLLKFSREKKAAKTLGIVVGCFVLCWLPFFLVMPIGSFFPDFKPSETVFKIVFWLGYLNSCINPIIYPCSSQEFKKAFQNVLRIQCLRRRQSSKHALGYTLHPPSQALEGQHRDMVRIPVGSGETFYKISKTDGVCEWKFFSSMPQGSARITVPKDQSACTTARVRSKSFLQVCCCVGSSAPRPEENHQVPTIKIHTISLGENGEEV
Method: (§1) Receptor binding assays were performed using native a-adrenoceptors. The affinity of different compounds for α1A and α1B adrenoceptor subtypes was evaluated by studying their ability to displace specific [^3H] prazosin binding from the membranes of rat submaxillary and liver respectively (Michel et al., Br J Pharmacol, 1989: 98:883). The binding assays were performed according to U+Prichard et al. (Eur J Pharmacol, 1978; 50:87 with minor modifications.
(§2) Submaxillary glands were isolated immediately after sacrifice. The liver was perfused with buffer (Tris HCl 50 mM, NaCl 100 mM, 10 mM EDTA pH 7.4). The tissues were homogenised in 10 volumes of buffer (Tris HCl 50 mM, NaCl 100 mM, 10 mM EDTA pH 7.4). The homogenate was filtered through two layers of wet gauge and filtrate was centrifuged at 500 g for 10 min. The supernatant was subsequently centrifuged at 40,000 g for 45 min. The pellet thus obtained was resuspended in the same volume of assay buffer (Tris HCl 50 mM, 5 mM EDTA pH 7.4) and was stored at −70° C. until the time of assay.
(§3) The membrane homogenates (150-250 μg protein) were incubated in 250 μl of assay buffer (Tris HCl 50 mM, EDTA 5 mM, pH 7.4) at 24-25° C. for 1 hour. Non specific binding was determined in the presence of 300 nM prazosin. The incubation was terminated by vacuum filtration over GF/B fibre filters. The filters were then washed with ice cold 50 mM Tris HCl buffer (pH 7.4). The filtermats were dried and bound radioactivity retained on filters was counted. The IC50 and Kd were estimated by using the non-linear curve-fitting program using G Pad Prism software. The value of inhibition constant Ki was calculated from competitive binding studies by using Cheng & Prusoff equation (Cheng & Prusoff, Biochem Pharmacol, 1973, 22: 3099-3108), Ki=IC50/(1+L/Kd) where L is the concentration of [^3H] prazosin used in the particular experiment (Table 1).

[2] = target: T2, α1B adrenoceptor (Rattus norvegicus, UniProt P15823); assay: Radioligand binding, [3H] prazosin displacement, rat liver membranes; details: read-out: Affinity (Ki) α1B (Rat Liver)
T2 construct: from tissue; host or cells: rat liver membranes
T2 sequence (P15823 1-515): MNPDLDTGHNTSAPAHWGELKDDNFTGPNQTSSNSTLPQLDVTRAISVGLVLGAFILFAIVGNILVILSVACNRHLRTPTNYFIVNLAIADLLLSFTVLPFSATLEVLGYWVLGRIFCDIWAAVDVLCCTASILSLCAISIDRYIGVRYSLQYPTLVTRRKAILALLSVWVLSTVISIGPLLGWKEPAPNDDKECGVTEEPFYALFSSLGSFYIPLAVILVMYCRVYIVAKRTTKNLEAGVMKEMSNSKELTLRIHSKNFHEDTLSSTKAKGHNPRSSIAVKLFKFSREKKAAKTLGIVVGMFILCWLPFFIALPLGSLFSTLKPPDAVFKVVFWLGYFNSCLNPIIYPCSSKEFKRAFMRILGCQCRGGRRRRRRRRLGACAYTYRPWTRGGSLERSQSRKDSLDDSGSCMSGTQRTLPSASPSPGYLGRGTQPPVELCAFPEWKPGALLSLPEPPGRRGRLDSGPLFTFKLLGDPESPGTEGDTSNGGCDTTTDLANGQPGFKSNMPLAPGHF
Method: as §1, §2, §3

CCOC(=O)CN(CCCN1C(=O)C2CC=CCC2C1=O)CCNc1ccccc1OC(C)C (stereo not drawn) [Compound No. 52, 2-[N-{N′-(2-Isopropoxyphenyl)aminoethyl}ethylacetate-aminopropyl]-3a,4,7,7a-tetrahydro-1H-isoindole-1,3(2H)-dione]
Ki [1]: 351 nM
α1B/α1A [1]: >43
Ki [2]: > 15000 nM

CC(C)Oc1ccccc1NCCN(C=O)CCCN1C(=O)C2CC=CCC2C1=O (stereo not drawn) [Compound No. 53, 2-[N-{N′-(2-Isopropoxyphenyl)aminoethyl}formylaminopropyl]-3a,4,7,7a-tetrahydro-1H-isoindole-1,3(2H)-dione]
Ki [1]: 74 nM
α1B/α1A [1]: >203
Ki [2]: > 15000 nM

CC(C)Oc1ccccc1N1CCN(CCCN2C(=O)C3CC=CCC3C2=O)CC1=O (stereo not drawn) [Compound No. 54]
Ki [1]: 7290 nM
α1B/α1A [1]: >2
Ki [2]: > 15000 nM

COc1ccccc1[N+]1([O-])CCN(CCCN2C(=O)CCCC2=O)CC1 [Compound No. 55, 1-[4-(2-Methoxyphenyl)piperazin-1-yl-4-N-oxide]-3-(2,6-dioxopiperidin-1-yl]propane]
Ki [1]: 72 nM
α1B/α1A [1]: 51
Ki [2]: 3640 nM

COc1ccccc1NCCNCCCN1C(=O)CCCC1=O [Compound No. 56, 1-[N-{N′-(2-Methoxyphenyl)aminoethyl}]-3-(2,6-dioxopiperidin-1-yl)aminopropane hydrochloride]
Ki [1]: > 100 nM
α1B/α1A [1]: >10
Ki [2]: 992 nM

COc1ccccc1NCCNCCCN1C(=O)CCCC1=O.Cl [Compound No. 57, 1-[N—N-{N′-(2-Methoxyphenyl)aminoethyl}]-3-(2,6-dioxopiperidin-1-yl)aminopropane hydrochloride]
Ki [1]: > 1000 nM
α1B/α1A [1]: 1
Ki [2]: > 1000 nM

CC(=O)Nc1ccc(N2CCN(CCCN3C(=O)C4CC=CCC4C3=O)CC2)c(OC(C)C)c1.Cl (stereo not drawn) [Compound No. 58, 2-[3-{4-(2-Isopropoxy-4-acetylaminophenyl)piperazin-1-yl}propyl]-3a,4,7,7a-tetrahydro-1H-isoindole-1,3(2H)-dione hydrochloride]
Ki [1]: 160 nM
α1B/α1A [1]: 10
Ki [2]: > 1000 nM

CC(C)Oc1ccccc1N1CCN(CCCN2C(=O)C3=CC=CCC3C2=O)CC1.Cl (stereo not drawn) [Compound No. 59, 2-[3-{4-(2-Isopropoxyphenyl)piperazin-1-yl}propyl]-7,7a-dihydro-1H-isoindole-1,3(2H)-dione hydrochloride]
Ki [1]: 2.3 nM
α1B/α1A [1]: 21
Ki [2]: 48 nM

CC(C)Oc1ccccc1N1CCN(CCCN2C(=O)[C@@H]3[C@H](C2=O)[C@H]2C=C[C@@H]3O2)CC1 [Compound No. 61, 2-[3-{4-(2-Isopropoxyphenyl)piperazin-1-yl}-propyl]-exo-4,7-epoxy-3a,4,7,7a-tetrahydro-1H-isoindole-1,3(2H)-dione hydrochloride]
Ki [1]: 0.93 nM
α1B/α1A [1]: 31
Ki [2]: 29 nM

CC(C)Oc1ccccc1N1CCN(CCC(=O)N2C(=O)C3CC=CCC3C2=O)CC1.Cl (stereo not drawn) [Compound No. 62, 2-[3-{4-(2-Isopropoxyphenyl)piperazin-1-yl}-1-oxo-propyl]-3a,4,7,7a-tetrahydro-1H-isoindole-1,3(2H)-dione hydrochloride]
Ki [1]: > 1000 nM
α1B/α1A [1]: 1
Ki [2]: > 1000 nM

CC(C)Oc1ccccc1N1CCN(CCC(=O)N2C(=O)C3CCCCC3C2=O)CC1.Cl (stereo not drawn) [Compound No. 63, 2-[3-{4-(2-Isopropoxyphenyl)piperazin-1-yl}-1-oxo-propyl]-3a,4,5,6,7,7a-hexahydro-1H-isoindole-1,3(2H)-dione hydrochloride]
Ki [1]: > 100 nM
α1B/α1A [1]: >10
Ki [2]: > 1000 nM

CC(C)Oc1ccccc1[N+]1([O-])CCN(CCCN2C(=O)C3CC=CCC3C2=O)CC1 (stereo not drawn) [Compound No. 64, 2-[3-{4-(2-Isopropoxyphenyl)piperazin-1-yl,4-N-oxide}propyl]-3a,4,7,7a-tetrahydro-1H-isoindole-1,3(2H)-dione]
Ki [1]: 28.5 nM
α1B/α1A [1]: 31
Ki [2]: 870 nM

CC(C)Oc1ccccc1N1CC[N+]([O-])(CC(O)CN2C(=O)C3CC=CCC3C2=O)CC1 (stereo not drawn) [Compound No. 65, 2-[3-{4-(2-Isopropoxyphenyl)piperazin-1-yl,1-N-oxide}2-hydroxypropyl]-3a,4,7,7a-tetrahydro-1H-isoindole-1,3(2H)-dione]
Ki [1]: > 1000 nM
α1B/α1A [1]: 1
Ki [2]: > 1000 nM

CCOc1ccccc1N1CCN(CCCN2C(=O)C3CC(O)C(O)CC3C2=O)CC1 (stereo not drawn) [Compound No. 66, hydrochloride]
Ki [1]: 5.2 nM
α1B/α1A ([1]; hydrochloride): 32
Ki [2]: 167 nM

CC(C)Oc1ccccc1N1CCN(CCCN2C(=O)C3CC=CCC3C2=O)C1=O (stereo not drawn) [Compound No. 67, 2-[3-{3-(2-Isopropoxyphenyl)imidazolidon-1-yl}propyl]-3a,4,7,7a-tetrahydro-1H-isoindole-1,3(2H)-dione]
Ki [1]: 189 nM
α1B/α1A [1]: >53
Ki [2]: > 10000 nM

CC(C)Oc1ccccc1N(CCO)CCNCCCN1C(=O)C2CC=CCC2C1=O (stereo not drawn) [Compound No. 68, 2-[N-{N′-(2-Isopropoxyphenyl)aminoethyl}aminopropyl-N′-(β-hydroxyethyl]-3a,4,7,7a-tetrahydro-1H-isoindole-1,3(2H)-dione hydrochloride]
Ki [1]: 229 nM
α1B/α1A [1]: >44
Ki [2]: > 10000 nM

COc1ccccc1N1CC[N+]([O-])(CC(O)CN2C(=O)CCCC2=O)CC1 (stereo not drawn) [Compound No. 69, 1-[4-(2-Methoxyphenyl)piperazin-1-yl-1-N-oxide]-3-(2,6-dioxopiperidin-1-yl]-2-hydroxypropane]
Ki [1]: 7160 nM
α1B/α1A [1]: >10
Ki [2]: > 10000 nM

O=C1CCCC(=O)N1CCC[N+]1([O-])CCN(c2ccccc2O)CC1 [Compound No. 70, 1-[4-(2-Hydroxyphenyl)piperazin-1-yl-1-N-oxide]-3-(2,6-dioxopiperidin-1-yl]propane]
Ki [1]: 6750 nM
α1B/α1A [1]: 0.7
Ki [2]: 4920 nM

CC(C)Oc1ccccc1N1CCN(CCCN2C(=O)C3CC=CCC3C2=O)C(=O)C1=O (stereo not drawn) [Compound No. 71, 2-[3-{4-(2-Isopropoxyphenyl)-2,3-dioxopiperazin-1-yl}-propyl]-3a,4,7,7a-tetrahydro-1H-isoindole-1,3(2H)-dione]
Ki [1]: > 1000 nM
α1B/α1A [1]: 1
Ki [2]: > 10000 nM

CC(C)Oc1ccccc1N1CCN(CCCN2C(=O)C3C(O)C=CC(O)C3C2=O)CC1 (stereo not drawn) [Compound No. 72, 2-[3-{4-(2-Isopropoxyphenyl)piperazin-1-yl}propyl]-4,7-dihydroxy-3a,4,7,7a-tetrahydro-1H-isoindole-1,3(2H)-dione]
Ki [1]: 0.54 nM
α1B/α1A [1]: 263
Ki [2]: 142 nM

CCN(CCCN1C(=O)C2CC=CCC2C1=O)CCNc1ccccc1OC(C)C (stereo not drawn) [Compound No. 74, 2-[N-{N′-(2-Isopropoxyphenyl)aminoethyl}ethylaminopropyl]-3a,4,7,7a-tetrahydro-1H-isoindole-1,3(2H)-dione]
Ki [1]: 202 nM
α1B/α1A [1]: >74
Ki [2]: > 15000 nM
